Data published in article doi:10.1101/2020.10.22.350827v1 (biorxiv, 2020).
Where a chain is given by its changes, count along the chain named.

Columns and labels:
[1] = molecular target: T1, Nluc-A1R (adenosine A1 receptor) (Homo sapiens, UniProt P30542, Y271A); assay: NanoBRET competition binding, live HEK […] cells; assay type: cell-based
T1 sequence (P30542 1-326 Y271A): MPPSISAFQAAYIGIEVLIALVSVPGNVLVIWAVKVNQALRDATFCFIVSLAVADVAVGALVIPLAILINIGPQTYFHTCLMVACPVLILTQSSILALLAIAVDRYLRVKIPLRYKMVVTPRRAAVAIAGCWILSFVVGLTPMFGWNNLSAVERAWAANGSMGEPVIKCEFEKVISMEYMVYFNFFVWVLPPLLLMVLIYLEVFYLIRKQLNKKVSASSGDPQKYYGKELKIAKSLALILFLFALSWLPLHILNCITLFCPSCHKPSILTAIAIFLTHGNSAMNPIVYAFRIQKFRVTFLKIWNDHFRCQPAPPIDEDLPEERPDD

[2] = molecular target: T2, Nluc-A1R (adenosine A1 receptor) K265A (Homo sapiens, UniProt P30542, K265A); assay: cell-based; set-up: species or system HEK 293
T2 sequence (P30542 1-326 K265A): T1 sequence (P30542 1-326 Y271A) with K265A, A271Y

Ki [1]: 7.08 µM | Ki [2]: 0.977 µM
Compound: OC[C@H]1O[C@@H](n2cnc3c(N[C@@H]4CCC[C@H]4O)ncnc32)[C@H](O)[C@@H]1O [compound 6, HOCPA]
